pIC50: −log10 of the molar value.
Key:
Plasmodium falciparum [1] = experiment: Hit confirmation in dose-response curve in Dd2 pLDH assay, at 72h; assay type: functional, organism-based; design: timepoint 72 hour; details: Dd2, Erythrocyte
[2] = Hit confirmation in dose-response curve in HepG2 cytotoxicity assay, at 72h; assay type: toxicity, cell-based; design: timepoint 72 hour; details: human, HepG2 cells
Plasmodium falciparum [3] = experiment: Hit confirmation in dose-response curve in NF54 pLDH assay, at 72h; assay type: functional, organism-based; design: timepoint 72 hour; details: NF54, Erythrocyte
Plasmodium falciparum [4] = experiment: Hit confirmation in dose-response curve in NF54 nanoGlo assay, at 72h; assay type: functional, organism-based, Erythrocyte; design: timepoint 72 hour; details: Plasmodium falciparum, NF54, Erythrocyte, 72 h
Plasmodium falciparum [5] = experiment: Hit confirmation in dose-response curve in NF54 nanoGlo assay, at 12h; assay type: functional, organism-based, Erythrocyte; design: timepoint 12 hour; details: Plasmodium falciparum, NF54, Erythrocyte, 12 h

| Compound | pIC50 (Plasmodium falciparum [1]) | pIC50 (Plasmodium falciparum [3]) | pIC50 (Plasmodium falciparum [4]) | pIC50 (Plasmodium falciparum [5]) | IC50 at 72 h [2] |
| --- | --- | --- | --- | --- | --- |
| Cc1ccc(S(=O)(=O)c2c(NS(=O)(=O)c3ccccc3)n(CCc3ccccc3)c3nc4ccccc4nc23)cc1 | 5.52 | 5.42 | 5.84 | 5.72 | > 10 µM |
| Cc1cc(C(=O)NC2CC(C)n3ccnc32)nn1C(C)C (stereo not given) | < 5.00 | 7.00 | 5.61 | < 5.00 | > 10 µM |
| O=c1nc2n(nc1-c1ccccc1)C1(CCC1)Nc1ccccc1-2 | 5.73 | 5.55 | 6.12 | 5.39 | > 10 µM |
| O=C1NC(=O)c2ccc3c4c(ccc1c24)C(=O)N(c1ccccc1)C3=O | 5.78 | 5.45 | 5.22 | < 5.00 | > 10 µM |
| COc1ccc(-c2cc3n(n2)C[C@@](C)(C(=O)NCc2ccccc2OC)N(c2cccc(OC)c2)C3=O)cc1 | < 5.00 | < 5.00 | 5.52 | 5.32 | > 10 µM |
| CCc1cccc(NC(=O)N2CCC3(CC2)C(=O)N(CC(=O)Nc2ccc(F)cc2)CN3c2ccccc2)c1 | 5.17 | 4.97 | 5.52 | 5.53 | > 10 µM |
| CC(N=C1NC(=NC(C)c2ccccc2)c2ccccc21)c1ccccc1 (stereo not given) | 5.38 | 5.30 | 5.61 | 5.31 | > 10 µM |
| Cc1ccc(N2C(=O)C[C@]3(CC3(c3ccccc3)c3ccccc3)C2=O)cc1 | < 5.00 | < 5.00 | 5.82 | 6.28 | > 10 µM |
| CCC(=O)N(Cc1ccc(-c2ccc(Cl)cc2)o1)[C@H]1CCS(=O)(=O)C1 | 5.53 | 5.29 | 5.78 | 5.47 | > 10 µM |
| C[C@H]1[C@@H]2[C@@H](O)C([C@H](C)C(=O)NC3CCCCC3)CC[C@@]2(C)CC[C@@H]1NC(=O)CC(C)(C)C (stereo not given in full) | 5.54 | 5.46 | < 5.00 | < 5.00 | > 10 µM |
| Cc1ccc(N(Cc2cccs2)C(=O)c2cccs2)cc1Cl | 5.33 | 5.03 | 5.47 | 5.24 | > 10 µM |
| Cc1ccc[n+](Cc2ccc3ccccc3n2)c1 | 5.54 | 5.49 | 5.52 | < 5.00 | > 10 µM |
| CN1CCC(n2ncc3[nH]c(-c4ccc(C(F)(F)F)cc4)nc32)CC1 | 5.92 | 5.82 | 6.16 | 5.88 | > 10 µM |
| O=C(Nc1c(S(=O)(=O)c2ccccc2)c2nc3ccccc3nc2n1CCc1ccccc1)c1ccc(Cl)cc1 | 5.25 | 4.95 | 5.96 | 6.22 | > 10 µM |
| CCOc1ccc(NC(=O)c2cn3nc(-c4ccc(OCC)cc4)cc3nc2C2CCN(C(=O)OC(C)(C)C)CC2)cc1 | 5.11 | < 5.00 | < 5.00 | < 5.00 | > 10 µM |
| CN(C(=O)C(C)(C)Nc1ncc(C(F)(F)F)cc1Cl)c1ccc(Cl)cc1 | < 5.00 | < 5.00 | 5.45 | 5.81 | > 10 µM |
| Cc1cc[n+]2c(-c3ccccc3)cc(-c3ccccc3)nc2c1 | 5.75 | 5.59 | 5.82 | < 5.00 | > 10 µM |
| CC1CCC(c2noc([C@H]3CCO[C@@H]3c3cncc(Br)c3)n2)CC1 (stereo not given in full) | 5.41 | 5.35 | 5.54 | < 5.00 | > 10 µM |
| CCNc1nc(C)cc(Nc2ccc(NC(=O)c3cc(C)ccc3C)cc2)n1 | 6.20 | 6.11 | 6.49 | 6.34 | > 10 µM |
| Cc1cc(C)c2nc(C)cc(Nc3ccc(O)cc3)c2c1 | 5.90 | 5.78 | 5.91 | 5.13 | > 10 µM |
| O=C(COc1ccccc1)Nc1ccc2c(c1)C(O)=Nc1cccnc1O2 | 5.55 | 5.61 | 5.76 | < 5.00 | > 10 µM |
| CCN(C(=O)Cn1cc(-c2ccccc2)c2ncn(CC)c(=O)c21)c1ccccc1 | < 5.00 | < 5.00 | 6.12 | 6.44 | > 10 µM |
| CC1CC(C(=O)Nc2[nH]c(=O)ncc2F)CC(C)(C)C1 (stereo not given) | < 5.00 | 8.48 | 8.69 | 6.31 | > 10 µM |

More lines, main results first:

| pIC50 (Plasmodium falciparum [1]) | pIC50 (Plasmodium falciparum [3]) | pIC50 (Plasmodium falciparum [4]) | pIC50 (Plasmodium falciparum [5]) | Compound | IC50 at 72 h [2] |
| --- | --- | --- | --- | --- | --- |
| 5.39 | 5.08 | 5.62 | 5.36 | Cc1cc(OC[C@@H](O)CNC(C)(C)CC(C)(C)C)cc(C)c1Cl | 10.5 µM |
| < 5.00 | < 5.00 | 5.83 | 6.24 | COc1cccc(-c2nc(C)c(C(=O)Nc3nc(C(C)C)n[nH]3)s2)c1 | > 10 µM |
| 6.11 | 5.85 | 6.10 | < 5.00 | COc1ccc(-[n+]2c(-c3ccccc3)cn3c2CCC3)cc1 | > 10 µM |
| < 5.00 | 8.78 | 8.72 | 6.30 | O=C(Nc1[nH]c(=O)ncc1F)c1cc(F)c(F)cc1Br | > 10 µM |
| < 5.00 | 8.00 | 8.23 | 5.11 | COc1cc(C(=O)Nc2[nH]c(=O)ncc2F)ccc1Cl | > 10 µM |
| < 5.00 | 5.78 | 6.24 | < 5.00 | COc1nc(-c2cccc(C(=O)NCC3CCOCC3)c2)ncc1F | > 10 µM |
| < 5.00 | < 5.00 | < 5.00 | < 5.00 | COC(=O)c1c(NC(C)=O)c2cc(NC3CCOCC3)cnc2n1CCc1ccc(OC)cc1 | > 10 µM |
| 5.68 | 5.62 | 5.67 | < 5.00 | COc1ccc(-[n+]2c(-c3ccc(-c4ccccc4)cc3)cn3c2COCC3)cc1 | > 10 µM |
| < 5.00 | < 5.00 | 5.70 | 5.98 | COc1ccc2c(c1)OC13CCN(C)CC1C2C(C(=O)c1ccccc1OC)C(=O)N3 (stereo not given) | > 10 µM |
| 5.19 | 4.97 | 5.58 | 5.56 | Cc1oc2ncn(CCN3CCCC3)c(=O)c2c1C(=O)Nc1ccc(C#N)cc1 | > 10 µM |
| 5.83 | 5.63 | 5.85 | < 5.00 | COc1ccc(C(=O)C[n+]2cc(-c3ccc(OC)cc3)n3c2CCCC3)cc1 | > 10 µM |
| 5.83 | 5.66 | 5.77 | < 5.00 | CCc1c(C)nn2c(c1C)c(-c1ccccc1)[n+]1c(C)c(CC)c(C)nc21 | > 10 µM |
| 5.61 | 5.59 | 5.71 | < 5.00 | c1ccc2c[n+](Cc3ccc4ccccc4n3)ccc2c1 | > 10 µM |
| 5.30 | < 5.00 | 5.96 | < 5.00 | Cc1cc(=O)[nH]c(-n2nc(C3CC3)cc2NC(=O)C(C)(C)Oc2ccc(Cl)cc2)n1 | > 10 µM |

— ChEMBL document CHEMBL4888484, “Replenishing the malaria drug discovery pipeline: Screening and hit evaluation of the MMV Hit Generation Library 1 (HGL1) against asexual blood stage Plasmodium falciparum ,using a nano luciferase reporter read-out” (2022)
